Where “and” joins values, the source holds several entries; their conditions need not be identical. Equal values may be shown once.
Legend:
[1] = tested on: patients with vasodilatory shock; details: cited from earlier work
[2] = Particulate matter (USP) of stored samples (Example 8); assay type: physicochemical; details: inverted
Method: Experiments were also conducted on the same samples above over the course of the experiments to measure the amount of individual impurities in the samples, pH of the samples, chlorobutanol content, particulate matter, antimicrobial effectiveness, and bacterial endotoxin levels (TABLES 25-42). (NR=no reading; ND=not determined; UI=unidentified impurity).

[3] = tested on: septic shock and post-cardiotomy vasodilatory shock; details: seven studies in septic shock and eight studies in post-cardiotomy vasodilatory shock; cited from earlier work

## NC(=O)CC[C@@H]1NC(=O)[C@H](Cc2ccccc2)NC(=O)[C@H](Cc2ccc(O)cc2)NC(=O)[C@@H](N)CSSC[C@@H](C(=O)N2CCC[C@H]2C(=O)N[C@@H](CCCN=C(N)N)C(=O)NCC(N)=O)NC(=O)[C@H](CC(N)=O)NC1=O [Vasopressin, Cyclo (1-6) L-Cysteinyl-L-Tyrosyl-L-Phenylalanyl-L-Glutaminyl-L-Asparaginyl-L-Cysteinyl-L-Prolyl-L-Arginyl-L-Glycinamide]
[1]; after stopping the infusion
  time for pressor effect to fade: ≤ 20 min
[1]; infusion of exogenous vasopressin
  time of peak pressor effect: ≤ 15 min
[1]; patients with vasodilatory shock
  hemodynamic effect at therapeutic doses: increases systemic vascular resistance and mean arterial blood pressure
[1]; patients
  tachyphylaxis or tolerance to the pressor effect: no evidence for tachyphylaxis or tolerance
[2]; 5° C., 1 month
  Particulate Matter (USP) (≥10 μm): 1 and 2
  Particulate Matter (USP) (≥25 μm): 0
[2]; 5° C., 2 months
  Particulate Matter (USP) (≥10 μm): 1
  Particulate Matter (USP) (≥25 μm): 0
[2]; 5° C., 3 months
  Particulate Matter (USP) (≥10 μm): 1 and 2
  Particulate Matter (USP) (≥25 μm): 0
[2]; 5° C., 6 months
  Particulate Matter (USP) (≥10 μm): 2 and 1
  Particulate Matter (USP) (≥25 μm): 0
[2]; 5° C., 9 months
  Particulate Matter (USP) (≥25 μm): 0
[2]; 5° C., 12 months
  Particulate Matter (USP) (≥10 μm): 2
  Particulate Matter (USP) (≥25 μm): 0
[2]; 5° C., 18 months
  Particulate Matter (USP) (≥25 μm): 0
[2]; 5° C., 24 months
  Particulate Matter (USP) (≥25 μm): 0
[2]; 5° C., Initial
  Particulate Matter (USP) (≥25 μm): 0
[2]; 40° C., 1 month
  Particulate Matter (USP) (≥10 μm): 1
  Particulate Matter (USP) (≥25 μm): 0
[2]; 40° C., 2 months
  Particulate Matter (USP) (≥10 μm): 1
  Particulate Matter (USP) (≥25 μm): 0
[2]; 40° C., 3 months
  Particulate Matter (USP) (≥10 μm): 1
  Particulate Matter (USP) (≥25 μm): 0
[2]; 40° C., Initial
  Particulate Matter (USP) (≥10 μm): 1
  Particulate Matter (USP) (≥25 μm): 0
[3]
  systolic and mean blood pressure following administration: Increases in systolic and mean blood pressure

Reference: patent publication US9968649B2, “Vasopressin formulations for use in treatment of hypotension” (Par Pharmaceutical, Inc., priority 2015, dated 2018)
